Experimental data reported in patent US20080027129A1 (L'OREAL, priority 2006, published 2008).
Where two headings read alike, the source gives them in different places.

Tests used:
GSH = conditions: described in the literature; cited from earlier work
[1] = test system: normal human melanocytes (NHM); assay: reactive oxygen species (ROS) generated by an H2O2 stress in cultured normal human melanocytes; type: cell-based; conditions: NHM pretreated 12 h/18 h with compound, H2DCFDA 10 μM, H2O2 250 μM, read after 15 minutes; FIG. 1
Description: Protocol for measuring the reactive oxygen species (ROS) generated by an H2O2 stress in cultured normal human melanocytes (NHM)
The normal human melanocytes (NHMs) were inoculated at D0 at the density of 4×10^4 cells/cm^2. […] After 20 minutes, the H2DCFDA solution was replaced with the culture medium. The NHMs were left for 30 minutes before adding the H2O2 solution (250 μM). The fluorescence was measured after 15 minutes in a fluoroscan (excitation: 485 nm, emission: 538 nm).
The compounds studied were used depending on their properties (concentration, preincubation time). N-Acetylcysteine (A9165-Sigma) was used as a reference molecule. The melanocytes were pretreated, 12 h/18 h at 37° C., with the compound studied in the culture medium, before being brought into contact for 20 minutes with H2DCFDA (10 μM in PBS). The H2DCFDA solution was then replaced with the culture medium containing the active agent studied. After incubating for 30 minutes the oxidative stress was induced by addition of 250 μM of H2O2 in the culture medium. The fluorescence was measured after 15 minutes in a fluoroscan (excitation: 485 nm, emission: 538 nm).
The results represent the crude fluorescence data, from which the auto-fluorescence values of “blank” cells, expressed in fluorescence units (fu), obtained during a representative experiment, have been deducted, see FIG. 1.

[2] = test system: normal human melanocytes (NHMs); assay: viability of cultured normal human melanocytes after a dopamine stress (Alamar Blue); type: cell-based; design: cell viability after dopamine stress: scale not given here; conditions: for viability at 200 µM: Homo sapiens, Melanocyte, compound 200 μM, read-out: cell viability after dopamine stress; for viability at 200 µM / cell viability after dopamine stress: D3, Alamar Blue
Description: 1-C-1. Effect of 3H-1,2-dithiole-3-thione (D3T) on the Viability of Cultured Normal Human Melanocytes (NHMs) After a Dopamine Stress:
The normal human melanocytes (NHMs) were inoculated at DO at the density of 1×10^4 cells/cm^2. After adhesion of the cells (3 h), the active agent studied was added to the culture medium. After 2 hours, the dopamine was added to the culture medium to begin the stress. At D3, the cell viability was measured using Alamar Blue (UP669413 UPTIMA, Interchim) according to the instructions of the supplier.

C=CCN=C=S [allyl isothiocyanate]
level of GSH (GSH): increasing the level of GSH

S=c1ccss1 [D3T, 3H-1,2-dithiole-3-thione]
reactive oxygen species (ROS) induced by H2O2, fluorescence [1]: decrease of the reactive oxygen species | level of GSH (GSH): increasing the level of GSH

S=C=NCCc1ccccc1 [phenethyl isothiocyanate]
level of GSH (GSH): increasing the level of GSH

CC(=O)N[C@@H](CS)C(=O)O [NAC, N-Acetylcysteine, reference compound]
viability at 200 µM ([2]; dopamine 0.00 μM): 100% | viability at 200 µM ([2]; dopamine 20.00 μM): 102% | viability at 200 µM ([2]; dopamine 40.00 μM): 102% | viability at 200 µM ([2]; dopamine 60.00 μM): 99.7% | viability at 200 µM ([2]; dopamine 70.00 μM): 95.7% | viability at 200 µM ([2]; dopamine 80.00 μM): 89.4% | viability at 200 µM ([2]; dopamine 90.00 μM): 77.7% | viability at 200 µM ([2]; dopamine 100.00 μM): 23.8%

C[S@@+]([O-])CCCCN=C=S [sulforaphane]
level of GSH (GSH): increasing the level of GSH

anethole dithiolethione [ADT]
reactive oxygen species (ROS) induced by H2O2, fluorescence [1]: decrease of the reactive oxygen species | survival of the cells under dopamine stress compared with the reference compound ([2]; FIG. 3, versus N-acetylcysteine): increases the survival of the cells with a better efficiency than N-acetylcysteine | cell viability after dopamine stress ([2]; compound 2 μM, dopamine 0.00 μM): 100.00 | cell viability after dopamine stress ([2]; compound 2 μM, dopamine 20.00 μM): 97.48 | cell viability after dopamine stress ([2]; compound 2 μM, dopamine 40.00 μM): 100.00 | cell viability after dopamine stress ([2]; compound 2 μM, dopamine 60.00 μM): 98.74 | cell viability after dopamine stress ([2]; compound 2 μM, dopamine 70.00 μM): 95.90 | cell viability after dopamine stress ([2]; compound 2 μM, dopamine 80.00 μM): 92.43 | cell viability after dopamine stress ([2]; compound 2 μM, dopamine 90.00 μM): 82.02 | cell viability after dopamine stress ([2]; compound 2 μM, dopamine 100.00 μM): 51.42 | cell viability after dopamine stress ([2]; compound 15 μM, dopamine 0.00 μM): 100.00 | cell viability after dopamine stress ([2]; compound 15 μM, dopamine 20.00 μM): 92.68 | cell viability after dopamine stress ([2]; compound 15 μM, dopamine 40.00 μM): 95.22 | cell viability after dopamine stress ([2]; compound 15 μM, dopamine 60.00 μM): 95.54 | cell viability after dopamine stress ([2]; compound 15 μM, dopamine 70.00 μM): 94.90 | cell viability after dopamine stress ([2]; compound 15 μM, dopamine 80.00 μM): 94.90 | cell viability after dopamine stress ([2]; compound 15 μM, dopamine 90.00 μM): 87.58 | cell viability after dopamine stress ([2]; compound 15 μM, dopamine 100.00 μM): 81.21 | level of GSH (GSH): increasing the level of GSH
